This is an account of results in patent US20240166664A1, “TRIHETEROCYCLIC COMPOUND, PREPARATION METHOD THEREFOR, AND APPLICATION THEREOF” (SHANGHAI APEIRON THERAPEUTICS COMPANY LIMITED, priority 2021, published 2024).

Structures are written as SMILES. Where two headings read alike, the source gives them in different places.

As usually defined, the IC50 is the concentration that inhibits the measured activity by half.

The target in one assay is T1, PARP7 (Homo sapiens, UniProt Q7Z3E1).
T1 construct: purchased BPS 80527
T1 sequence (Q7Z3E1 1-657): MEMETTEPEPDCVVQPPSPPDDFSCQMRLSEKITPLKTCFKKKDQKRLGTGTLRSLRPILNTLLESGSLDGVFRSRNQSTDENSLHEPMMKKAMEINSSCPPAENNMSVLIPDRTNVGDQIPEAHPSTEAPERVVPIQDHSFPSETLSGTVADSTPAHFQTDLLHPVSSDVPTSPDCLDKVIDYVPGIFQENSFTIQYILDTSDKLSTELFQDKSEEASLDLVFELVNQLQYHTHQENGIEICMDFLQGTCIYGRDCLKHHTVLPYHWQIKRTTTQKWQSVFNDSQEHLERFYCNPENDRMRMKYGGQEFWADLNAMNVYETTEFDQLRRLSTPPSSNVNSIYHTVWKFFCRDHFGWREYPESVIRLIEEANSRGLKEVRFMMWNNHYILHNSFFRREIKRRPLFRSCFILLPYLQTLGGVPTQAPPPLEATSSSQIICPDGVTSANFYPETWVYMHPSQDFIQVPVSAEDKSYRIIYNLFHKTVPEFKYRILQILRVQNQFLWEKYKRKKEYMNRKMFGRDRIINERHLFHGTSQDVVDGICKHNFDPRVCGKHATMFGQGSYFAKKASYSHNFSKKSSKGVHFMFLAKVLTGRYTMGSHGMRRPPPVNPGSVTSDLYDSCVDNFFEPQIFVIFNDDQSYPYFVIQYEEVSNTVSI
In words: Test of inhibitory activity against PARP7 enzyme (PARP7 FLAG-tag, Probe A, time-resolved fluorescence). The settings on record: PARP7 12 nM, Probe A 2 nM, 1 hr room temperature. The class given is biochemical.

The next assay deals with NCI-H1373 cells. Kind of assay: Cell proliferation inhibition assay (CTG method). Format: cell-based, human. As to conditions: read-out: IC50 (nM) for NCI-H1373 cell viability.
The mark [1] stands for this setting: Homo sapiens, NCI-H1373, 144 h, NCI-H1373 cells, 6 days incubation, CTG method.

For `C[C@@H](COCCC(=O)N1CCN2c3ncc(C(F)(F)F)cc3C(=O)CC2C1)Nc1cn[nH]c(=O)c1C(F)(F)F` (stereo partly drawn) [Compound 37, 8-(3-((S)-2-((6-oxo-5-(trifluoromethyl)-1,6-dihydropyridazin-4-yl)amino)propoxy)propionyl)-3-(trifluoromethyl)-6,6a, 7,8,9,10-hexahydro-5H-pyrazino[1,2-a][1,8]naphthyridin-5-one], the IC50 is < 10 nM on PARP7 and 100 to 500 nM in the assay with NCI-H1373 cells (setting [1]).

Take `C[C@@H](COCCC(=O)N1CCN2c3ncc(C(F)(F)F)cc3C(O)CC2C1)Nc1cn[nH]c(=O)c1C(F)(F)F` (stereo partly drawn) [Compound 38]: the IC50 on PARP7 was < 10 nM; in the assay with NCI-H1373 cells (setting [1]) it was 100 to 500 nM.

In the case of `CCN1C(=O)[C@@H]2CN(C(=O)CCOC[C@H](C)Nc3cn[nH]c(=O)c3C(F)(F)F)CCN2c2ncc(C(F)(F)F)cc21` [Compound 40, (S)-5-ethyl-8-(3-((S)-2-((6-oxo-5-(trifluoromethyl)-1,6-dihydropyridazin-4-yl)amino)propoxy)propionyl)-3-(trifluoromethyl)-7,8,9,10-tetrahydro-5H-pyrazino[1,2-a]pyrido[3,2-e]pyrazin-6(6aH)-one], the IC50 was < 10 nM against PARP7 and < 100 nM with NCI-H1373 cells (Homo sapiens, NCI-H1373, 144 h).

On to `C[C@@H](COCCC(=O)N1CCN2c3ncc(C(F)(F)F)cc3N(CCO)C(=O)[C@@H]2C1)Nc1cn[nH]c(=O)c1C(F)(F)F` [Compound 41, (S)-5-(2-hydroxyethyl)-8-(3-((S)-2-((6-oxo-5-(trifluoromethyl)-1,6-dihydropyridazin-4-yl)amino)propoxy)propionyl)-3-(trifluoromethyl)-7,8,9,10-tetrahydro-5H-pyrazino[1,2-a]pyrido[3,2-e]pyrazino-6(6aH)-one], for which the 50% inhibitory concentration (IC50) against PARP7 was < 10 nM; in the assay with NCI-H1373 cells (setting [1]), 500 to 5000 nM.

Turning to `C[C@@H](COCCC(=O)N1CCN2c3ncc(C(F)(F)F)cc3C(=O)N(C)C[C@H]2C1)Nc1cn[nH]c(=O)c1C(F)(F)F` [Compound 42, (S)-6-methyl-9-(3-((S)-2-((6-oxo-5-(trifluoromethyl)-1,6-dihydropyridazin-4-yl)amino)propoxy)propionyl)-3-(trifluoromethyl)-7,7a, 8,9,10,11-hexahydropyrazino[1,2-a]pyrido[3,2-f][1,4]diazepan-5(6H)-one], the values for the concentration for half-maximal inhibition (IC50) against PARP7 and in the assay on NCI-H1373 cells (setting [1]) were < 10 nM and 500 to 5000 nM, respectively.

Consider `C[C@@H](COCCC(=O)N1CCN2c3ncc(C(F)(F)F)cc3N(C)CCC2C1)Nc1cn[nH]c(=O)c1C(F)(F)F` (stereo partly drawn) [Compound 43, 5-((((2S)-1-(3-(5-methyl-3-(trifluoromethyl))-6,7,7a, 8,10,11-hexahydropyrazino[1,2-d]pyrido[3,2-b] [1,4]diazepine-9(5H)-yl)-3-oxopropoxy)prop-2-yl)amino)-4-(trifluoromethyl)pyridazin-3(2H)-one], for which the figures for the concentration for half-maximal inhibition (IC50) at PARP7 and in the assay on NCI-H1373 cells (setting [1]) were < 10 nM and 100 to 500 nM, respectively.

Consider `C[C@@H](COCCC(=O)N1CCN2c3ncc(C(F)(F)F)nc3OCC[C@H]2C1)Nc1cn[nH]c(=O)c1C(F)(F)F` [Compound 47, 5-(((S)-1-(3-oxo-3-((S)-3-(trifluoromethyl)-6,7,7a, 8, 10, 11-hexahydro-9H-bipyrazino[2,3-b:1′, 2′-d][1, 4]oxazepane-9-yl)propoxy)prop-2-yl)amino)-4-(trifluoromethyl)pyridazin-3(2H)-one], for which the half-maximal inhibitory concentration (IC50) at PARP7 was < 10 nM; in the assay with NCI-H1373 cells (setting [1]), < 100 nM.

Take `C[C@@H](COCCC(=O)N1CCN2c3ncc(C(F)(F)F)nc3N(C)C(=O)[C@H]2C1)Nc1cn[nH]c(=O)c1C(F)(F)F` [Compound 48, (R)-5-methyl-8-(3-((S)-2-((6-oxo-5-(trifluoromethyl)-1,6-dihydropyridazin-4-yl)amino)propoxy)propionyl)-3-(trifluoromethyl)-7,8,9, 10-tetrahydro-5H-bipyrazino[1,2-a:2′, 3′-e]pyrazin-6(6aH)-one]: the IC50 against PARP7 was < 10 nM; in the assay on NCI-H1373 cells (setting [1]) it was < 100 nM.

Consider `C[C@@H](COCCC(=O)N1CCN2c3ncc(C(F)(F)F)c(C#N)c3OC[C@H]2C1)Nc1cn[nH]c(=O)c1C(F)(F)F` [Compound 51, (R)-8-(3-((S)-2-((6-oxo-5-(trifluoromethyl)-1,6-dihydropyridazin-4-yl)amino)propoxy)propionyl)-3-(trifluoromethyl)-6,6a, 7,8,9, 10-hexahydropyrazino[1,2-d]pyrido[3,2-b][1, 4]oxazinane-4-carbonitrile], for which the IC50 at PARP7 was < 10 nM; in the assay with NCI-H1373 cells (setting [1]), 100 to 500 nM.

Regarding `Cc1c(C(F)(F)F)cnc2c1OC[C@H]1CN(C(=O)CCOC[C@H](C)Nc3cn[nH]c(=O)c3C(F)(F)F)CCN21` [Compound 52, 5-(((S)-1-(3-((R)-4-methyl-3-(trifluoromethyl)-6a, 7,9, 10-tetrahydropyrazino[1,2-d]pyrido[3,2-b][1, 4]oxazinane-8(6H)-yl)-3-oxopropoxy)prop-2-yl)amino)-4-(trifluoromethyl)pyridazin-3(2H)-one], the results for the IC50 on PARP7 and in the assay with NCI-H1373 cells (setting [1]) were < 10 nM and < 100 nM, respectively.

For the molecule `C[C@@H](COCCC(=O)N1CCN2c3ncc(C#N)cc3N(C)C(=O)[C@@H]2C1)Nc1cn[nH]c(=O)c1C(F)(F)F` [Compound 53], the figures for the half-inhibitory concentration (IC50) on PARP7 and with NCI-H1373 cells (setting [1]) were < 10 nM and 100 to 500 nM, respectively.

`C[C@@H](COCCC(=O)N1CCN2c3ncc(C(F)(F)F)nc3N(C)C(=O)[C@@H]2C1)Nc1cn[nH]c(=O)c1C(F)(F)F` [Compound 58, (S)-5-methyl-8-(3-((S)-2-((6-oxo-5-(trifluoromethyl)-1,6-dihydropyridazin-4-yl)amino)propoxy)propionyl)-3-(trifluoromethyl)-7,8,9, 10-tetrahydro-5H-bipyrazino[1,2-a:2′, 3′-e]pyrazin-6(6aH)-one]: the half-inhibitory concentration (IC50) is < 10 nM against PARP7 and < 100 nM in the assay with NCI-H1373 cells (setting [1]).

In the case of `C[C@@H](COCCC(=O)N1CCN2c3ncc(C(F)(F)F)cc3C=C[C@H]2C1)Nc1cn[nH]c(=O)c1C(F)(F)F` [Compound 60], the IC50 at PARP7 was < 10 nM; in the assay on NCI-H1373 cells (NCI-H1373 cells, 6 days incubation, CTG method), < 100 nM.

With `C[C@@H](COC[C@@H](F)C(=O)N1CCN2c3ncc(C(F)(F)F)cc3N(C)C(=O)[C@@H]2C1)Nc1cn[nH]c(=O)c1C(F)(F)F` [Compound 65, (S)-8-((R)-2-fluoro-3-((S)-2-((6-oxo-5-(trifluoromethyl)-1,6-dihydropyridazin-4-yl)amino)propoxy)propionyl)-5-methyl-3-(trifluoromethyl)-7,8,9, 10-tetrahydro-5H-pyrazino[1,2-a]pyrido[3,2-e]pyrazin-6(6aH)-one], the IC50 against PARP7 was < 10 nM; in the assay on NCI-H1373 cells (setting [1]), < 100 nM.

Turning to `C[C@@H](COC[C@H](F)C(=O)N1CCN2c3ncc(C(F)(F)F)cc3N(C)C(=O)[C@@H]2C1)Nc1cn[nH]c(=O)c1C(F)(F)F` [Compound 66, (S)-8-((S)-2-fluoro-3-((S)-2-((6-oxo-5-(trifluoromethyl)-1,6-dihydropyridazin-4-yl)amino)propoxy)propionyl)-5-methyl-3-(trifluoromethyl)-7,8,9, 10-tetrahydro-5H-pyrazino[1,2-a]pyrido[3,2-e]pyrazin-6(6aH)-one], the IC50 against PARP7 is < 10 nM; in the assay with NCI-H1373 cells (setting [1]) it was 500 to 5000 nM.

In the case of `C[C@@H](COC[C@H](O)C(=O)N1CCN2c3ncc(C(F)(F)F)cc3C=C[C@@H]2C1)Nc1cn[nH]c(=O)c1C(F)(F)F` [Compound 71], the IC50 against PARP7 is < 10 nM; with NCI-H1373 cells (setting [1]), < 100 nM.

Consider `C[C@@H](COC[C@@H](O)C(=O)N1CCN2c3ncc(C(F)(F)F)cc3C=C[C@@H]2C1)Nc1cn[nH]c(=O)c1C(F)(F)F` [Compound 72], for which the 50% inhibitory concentration (IC50) is < 10 nM against PARP7 and < 100 nM in the assay with NCI-H1373 cells (setting [1]).

Take `C[C@@H](COC[C@@H](F)C(=O)N1CCN2c3ncc(C(F)(F)F)cc3C=C[C@@H]2C1)Nc1cn[nH]c(=O)c1C(F)(F)F` [Compound 73]: the half-inhibitory concentration (IC50) on PARP7 is < 10 nM; in the assay with NCI-H1373 cells (setting [1]) it was < 100 nM.

On to `C[C@@H](COC[C@H](F)C(=O)N1CCN2c3ncc(C(F)(F)F)cc3C=C[C@@H]2C1)Nc1cn[nH]c(=O)c1C(F)(F)F` [Compound 74], for which the results for the half-maximal inhibitory concentration (IC50) at PARP7 and in the assay on NCI-H1373 cells (setting [1]) were < 10 nM and < 100 nM, respectively.

As for `C[C@@H](COCCC(=O)N1CCN2c3nc(N)c(C(F)(F)F)cc3COC[C@H]2C1)Nc1cn[nH]c(=O)c1C(F)(F)F` [Compound 77, 5-(((S)-1-(3-((R)-2-amino-3-(trifluoromethyl)-7a, 8, 10, 11-tetrahydro-5H-pyrazino[2,1-c]pyrido[2,3-e][1, 4]oxazepane-9(7H)-yl)-3-oxypropoxy)prop-2-yl)amino)-4-(trifluoromethyl)pyridazin-3(2H)-one], the values for the 50% inhibitory concentration (IC50) on PARP7 and in the assay on NCI-H1373 cells (setting [1]) were < 10 nM and > 5000 nM, respectively.

`C[C@@H](COCCC(=O)N1CCN2c3ncc(C(F)(F)F)cc3CNC(=O)[C@H]2C1)Nc1cn[nH]c(=O)c1C(F)(F)F` [Compound 79, (R)-9-(3-((S)-2-((6-oxo-5-(trifluoromethyl)-1,6-dihydropyridazin-4-yl)amino)propoxy)propionyl)-3-(trifluoromethyl)-5,6,8,9, 10, 11-hexahydropyrazino[1,2-a]pyrido[3,2-f][1, 4]diazepin-7(7aH)-one]: the IC50 against PARP7 was < 10 nM; with NCI-H1373 cells (setting [1]), 500 to 5000 nM.
